Consider 17 compounds from patent publication US4719223A, “Imidazolethiol dopamine-beta-hydroxylase inhibitors” (SmithKline Beckman Corporation, priority 1985, dated 1988).

Like-named read-outs stand apart in the source and are kept apart here.

The target in data set [1] is T1, dopamine-β-hydroxylase (DBH) (Bos taurus, UniProt P15101).
T1 sequence (P15101 1-610): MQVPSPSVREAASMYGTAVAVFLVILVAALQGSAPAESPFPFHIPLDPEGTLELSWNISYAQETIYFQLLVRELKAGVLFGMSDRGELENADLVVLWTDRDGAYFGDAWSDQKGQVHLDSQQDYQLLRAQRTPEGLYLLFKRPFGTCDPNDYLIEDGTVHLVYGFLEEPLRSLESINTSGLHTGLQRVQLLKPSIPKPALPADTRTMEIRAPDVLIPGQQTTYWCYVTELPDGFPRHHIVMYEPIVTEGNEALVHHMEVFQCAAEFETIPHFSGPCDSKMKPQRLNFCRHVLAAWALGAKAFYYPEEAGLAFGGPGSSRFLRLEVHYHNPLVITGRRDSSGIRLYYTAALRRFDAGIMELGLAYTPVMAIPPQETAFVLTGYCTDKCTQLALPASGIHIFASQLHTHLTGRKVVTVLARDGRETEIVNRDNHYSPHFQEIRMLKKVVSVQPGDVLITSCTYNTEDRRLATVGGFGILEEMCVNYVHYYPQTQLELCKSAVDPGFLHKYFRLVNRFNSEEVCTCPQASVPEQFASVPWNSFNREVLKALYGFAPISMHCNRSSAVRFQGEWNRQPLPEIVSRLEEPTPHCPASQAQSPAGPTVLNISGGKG
The data set is described as follows: in vitro DBH inhibition (conversion of tyramine to octopamine, absorbance at 330 nm). The data set is classed as biochemical. The following applies: for DBH inhibiting activity: phenolic hydroxy group replaced by isostere. On the procedure:
Because the compounds of Formula I inhibit DBH activity, they have therapeutic value as diuretic, natriuretic, cardiotonic, antihypertensive and vasodilator agents, as well as antiulcerogenic and anti-Parkinsonian agents. Listed in Table I are the compounds of the invention that were tested for in vitro DBH inhibition by a standard procedure for assaying conversion of tyramine to octopamine in the presence of DBH. J. J. Pisano, et al., Biochim. Biophys. Acta; 43, […] (1960). Octopamine was assayed following sodium periodate oxidation to p-hydroxybenzaldehyde by measuring spectrophotometric absorbance at 330 nm. In Table I, inhibition is given in molar concentration of compound at which DBH activity was halved (IC50). Melting points (mp) are given in °C.
This testing was performed using compounds prepared by substituting various phenolic isosteres for the phenolic hydroxy group of another DBH inhibitor, 1-(3',5'-difluoro-4'-hydroxybenzyl)imidazole-2-thiol (U.S. patent application Ser. No. 590,665, filed Mar. 19, 1984).

In data set [2] the test system is DBH. The following applies: cited from earlier work; for mode of DBH inhibition: apparent, phenethylamine analogues; for DBH inhibition: literature reports.
For data set [3], the system named is DBH. The following applies: Friedman et al. 1978; significance uncertain; cited from earlier work.
The conditions of data set [4]: Ehrreich et al. 1976; cited from earlier work.
In data set [5] the test system is peripheral dopamine (DA) and norepinephrine (NE) levels. Kind of data set: in vivo effect on peripheral dopamine (DA) and norepinephrine (NE) levels. Set-up: species or system spontaneously hypertensive rats. The following applies: 50 mg/kg orally, twice, about 18 h apart, sacrificed about 2 h after second dose; for DA/NE Ratio / DA: p < 0.001; for NE / DA: μg per gram of tissue. The protocol:
One of the compounds of the invention was tested for its effect in vivo on peripheral dopamine (DA) and norepinephrine (NE) levels substantially by the procedure of DaPrada and Zurcher, Life Sciences, 19, 1161, (1976). Groups of five spontaneously hypertensive rats were dosed orally, twice, the second dose approximately 18 hours after the first, and were sacrificed about 2 hours after the second dose.

Data set [6] is described as follows: mean arterial blood pressure in spontaneously hypertensive rats. The data set is classed as in vivo. The following applies: 50 mg/kg intraperitoneally; 15 min. On the procedure:
Further, spontaneously hypertensive rats were dosed with a suspension or solution of 1-(4'-amino-3',5'-difluorobenzyl)imidazole-2-thiol at a dose of 50 mg/kg intraperitoneally, and mean arterial blood pressure was monitored for 260 minutes using indwelling cannulae positioned in the tail arteries. Approximate forty percent reductions in blood pressure were observed fifteen minutes following administration of this compound. At 260 minutes after administration of this compound, blood pressure remained reduced by approximately ten percent when compared to vehicle-treated controls.

The conditions of data set [7]: Teresawa et al. 1971; cited from earlier work.
Where [8] appears, read: in vitro, tyramine to octopamine, read-out: IC50 (molar concentration of compound at which DBH activity was halved).

As to `NS(=O)(=O)Nc1c(F)cc(Cn2ccnc2S)cc1F` [--NHSO2 NH2], the DBH inhibiting activity entry in data set [1] (in vitro) is reported as “devoid of DBH inhibiting activity”.

As for `NOCc1ccccc1` [Benzyloxyamine, benzyloxyamine], the “mode of DBH inhibition” value in the data set with DBH [2] is given as “competitive inhibitors”.

With `COC(=O)[C@H]1[C@H]2C[C@@H]3c4[nH]c5cc(OC)ccc5c4CCN3C[C@H]2C[C@@H](OC(=O)c2cc(OC)c(OC)c(OC)c2)[C@@H]1OC` [reserpine], the “DBH levels in treated patients” value in the data set on DBH [3] is “lowered DBH levels”.

Take `CS(=O)(=O)Cc1c(F)cc(Cn2ccnc2S)cc1F` [--CH2 SO2 CH3]: the DBH inhibiting activity entry in data set [1] (in vitro) was “devoid of DBH inhibiting activity”.

On to `CCCCc1ccc(C(N)=O)nc1` [Bupicomide, 5-(n-butyl)picolinamine], for which, in the data set with DBH [2], the DBH inhibition entry is reported as “DBH inhibitor”. The antihypertensive activity result in data set [4] was “antihypertensive activity”.

As to `Nc1c(F)cc(Cn2ccnc2S)cc1F` [1-(4'-amino-3',5'-difluorobenzyl)imidazole-2-thiol], the IC50 in data set [1] (setting [8]) was determined as 1200 nM. In data set [5], the “DA/NE Ratio” value is recorded as 0.151, the NE stood at 5.53 µg/g and the DA came out at 0.821 µg/g. In addition, the “reduction in blood pressure, fifteen minutes after administration” value in data set [6] was “forty”.

For the compound `O=C(O)c1ccc(CCCCCl)cn1` [5-(4-chlorobutyl)picolinic acid], in the data set with DBH [2], the DBH inhibition result is listed as “inhibit DBH”.

Consider phenylpicolinic acid, for which, in the data set on DBH [2] (Runti et al. 1980), the “DBH inhibitory activity relative to fusaric acid” value is reported as “twice the inhibitory activity of fusaric acid”.

As for `C[C@](N)(Cc1ccc(O)c(O)c1)C(=O)O` [alpha-methyl-DOPA], the “DBH levels in treated patients” value in the data set with DBH [3] is reported as “lowered DBH levels”.

As for `NNCc1ccccc1` [benzylhydrazine], in the data set with DBH [2], the “mode of DBH inhibition” value is reported as “competitive inhibitors”.

With `O=CNc1c(F)cc(Cn2ccnc2S)cc1F` [--NHCHO], the DBH inhibiting activity entry in data set [1] (in vitro) is reported as “devoid of DBH inhibiting activity”.

As to `O=C(Nc1c(F)cc(Cn2ccnc2S)cc1F)C(F)(F)F` [--NHCOCF3], in data set [1] (in vitro), the DBH inhibiting activity result is “devoid of DBH inhibiting activity”.

`CN(C)C(=S)SCc1ccc(C(=O)O)nc1` [5-(dimethyldithiocarbamoyl)methylpicolinic acid]: in the data set with DBH [2], the DBH inhibition entry is on record as “DBH inhibitors”.

As to `Nc1c(Cl)cc(Cn2ccnc2S)cc1Cl` [1-(4'-amino-3',5'-dichlorobenzyl)imidazole-2-thiol], the IC50 in data set [1] (setting [8]) came to 3100 nM.

Take `O=C(O)c1ccc(CCC(Br)CBr)cn1` (stereo not shown) [5-(3,4-dibromobutyl)picolinic acid]: the DBH inhibition entry in the data set with DBH [2] is “DBH inhibitors”.

Consider `CCCCc1ccc(C(=O)O)nc1` [Fusaric acid], for which, in data set [5], the “DA/NE Ratio” value came out at 0.0937, the NE turned out to be 5.63 µg/g and the DA was found to be 0.529 µg/g. The hepatotoxicity result in data set [7] is given as “hepatotoxic”.

On to `Oc1c(F)cc(Cn2cc[nH]c2=S)cc1F` [1-(3',5'-difluoro-4'-hydroxybenzyl)imidazole-2-thiol], for which, in data set [1] (comparison compound of U.S. patent application Ser. No. 590,665, read-out: IC50 of comparison DBH inhibitor), the IC50 was determined as 80 nM.
